From patent publication US8822451B2, “Modulators of ATP-binding cassette transporters” (Vertex Pharmaceuticals Incorporated, priority 2005, dated 2014)

Biological target: T1, […]F508-CFTR (Homo sapiens, UniProt P13569, DEL508-508)
T1 construct: expressed in transfected cells
Assay: Assay results of Table 3: ΔF508-CFTR modulation, membrane potential optical assay (assay format not stated)
Type: cell-based
Settings: NIH3T3 mouse fibroblasts stably expressing […]F508-CFTR (optical assays); for Efficacy: efficacy range; for EC50: potency range
Procedure, shortened: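 Two VIPR II FRET voltage-dye formats in ΔF508-CFTR NIH3T3 cells yield EC50 and efficacy. Potentiator mode: 27° C.-corrected cells get compound in Cl⁻-free medium, forskolin 2-10 μM after 22 s (final Cl⁻ 28 mM). Corrector mode: compound 16 h at 37° C., activation with forskolin 10 μM plus genistein 20 μM.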

T1 sequence (P13569 with tags, fused parts or gaps DEL508-508): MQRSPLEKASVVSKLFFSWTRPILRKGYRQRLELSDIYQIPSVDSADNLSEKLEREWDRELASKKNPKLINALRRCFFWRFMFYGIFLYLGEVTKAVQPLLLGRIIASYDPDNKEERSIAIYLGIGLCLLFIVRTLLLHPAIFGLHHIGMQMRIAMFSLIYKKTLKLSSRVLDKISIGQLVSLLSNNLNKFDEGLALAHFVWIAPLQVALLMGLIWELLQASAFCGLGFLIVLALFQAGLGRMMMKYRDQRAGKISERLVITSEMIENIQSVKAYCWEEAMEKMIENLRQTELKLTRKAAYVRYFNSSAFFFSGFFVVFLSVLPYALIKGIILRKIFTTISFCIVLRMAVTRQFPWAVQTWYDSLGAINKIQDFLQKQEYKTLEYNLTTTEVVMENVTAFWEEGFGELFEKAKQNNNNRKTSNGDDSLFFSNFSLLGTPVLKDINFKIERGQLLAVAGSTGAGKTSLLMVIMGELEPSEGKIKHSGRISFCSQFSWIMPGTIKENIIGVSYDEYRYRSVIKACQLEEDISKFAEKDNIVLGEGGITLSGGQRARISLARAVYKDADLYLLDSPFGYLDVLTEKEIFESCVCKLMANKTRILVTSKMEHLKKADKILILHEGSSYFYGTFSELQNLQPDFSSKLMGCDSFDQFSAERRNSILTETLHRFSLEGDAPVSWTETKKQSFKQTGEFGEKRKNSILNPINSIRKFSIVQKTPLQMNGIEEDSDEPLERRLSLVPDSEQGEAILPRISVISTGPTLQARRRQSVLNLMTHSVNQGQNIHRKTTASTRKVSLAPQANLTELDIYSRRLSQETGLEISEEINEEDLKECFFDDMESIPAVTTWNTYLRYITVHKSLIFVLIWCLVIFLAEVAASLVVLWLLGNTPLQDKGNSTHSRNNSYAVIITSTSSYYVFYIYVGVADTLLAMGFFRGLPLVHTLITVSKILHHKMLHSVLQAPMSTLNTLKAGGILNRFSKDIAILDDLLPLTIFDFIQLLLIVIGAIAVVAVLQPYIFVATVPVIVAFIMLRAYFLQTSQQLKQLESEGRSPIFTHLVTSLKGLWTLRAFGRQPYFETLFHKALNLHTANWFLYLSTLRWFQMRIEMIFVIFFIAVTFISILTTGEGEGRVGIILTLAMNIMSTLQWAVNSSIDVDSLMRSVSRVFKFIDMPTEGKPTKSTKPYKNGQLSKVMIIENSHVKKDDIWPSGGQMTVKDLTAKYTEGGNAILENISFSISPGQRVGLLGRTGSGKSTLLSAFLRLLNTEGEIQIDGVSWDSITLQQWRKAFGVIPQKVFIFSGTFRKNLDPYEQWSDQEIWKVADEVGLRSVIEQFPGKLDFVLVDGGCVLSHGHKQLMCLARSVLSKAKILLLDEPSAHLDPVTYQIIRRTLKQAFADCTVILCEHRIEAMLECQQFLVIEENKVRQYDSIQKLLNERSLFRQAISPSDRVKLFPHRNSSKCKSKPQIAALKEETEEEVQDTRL

Row | EC50 [µM] | Structure (SMILES) | Efficacy
1 | 1 to 5 | CN(CCc1c[nH]c2ccccc12)c1nc(C(N)=O)cc(-c2ccccc2)n1 [Compound 63] | ++ (++ corresponds to Efficacy between 100 and 50)
2 | 1 to 5 | CCN(C)c1nc(C(N)=O)cc(-c2ccccc2)n1 [Compound 7] | +++ (+++ corresponds to Efficacy greater than 100)
3 | < 1 | CCN(CC)c1nc(C(N)=O)cc(-c2cccc(C(=O)OC(C)C)c2)n1 [Compound 85] | ++ (++ corresponds to Efficacy between 100 and 50)
4 | 1 to 5 | NC(=O)c1cc(-c2ccc(OC(F)(F)F)cc2)nc(N2CCCCC2)n1 [Compound 182] | + (+ corresponds to Efficacy less than 50)
5 | 1 to 5 | CCCN(CCC)c1nc(C(N)=O)cc(-c2ccccc2)n1 [Compound 23] | ++ (++ corresponds to Efficacy between 100 and 50)
6 | > 5 | COc1ccc(-c2cc(C(N)=O)nc(N(C)C)n2)cc1 [Compound 31] | + (+ corresponds to Efficacy less than 50)
7 | 1 to 5 | COc1ccc(-c2cc(C(N)=O)nc(N3CCCCCC3)n2)cc1 [Compound 78] | ++ (++ corresponds to Efficacy between 100 and 50)
8 | 1 to 5 | NC(=O)c1cc(-c2ccccc2)nc(N(Cc2ccccc2)Cc2ccccc2)n1 [Compound 92] | ++ (++ corresponds to Efficacy between 100 and 50)
9 | < 1 | CCN(CC)c1nc(C(N)=O)cc(-c2ccc(Cl)cc2)n1 [Compound 147] | ++ (++ corresponds to Efficacy between 100 and 50)
10 | > 5 | COc1ccccc1-c1cc(C(N)=O)nc(N(CCO)CCO)n1 [Compound 90] | + (+ corresponds to Efficacy less than 50)
11 | > 5 | COc1ccc(-c2cc(C(N)=O)nc(N3CCCCC3)n2)c(OC)c1 [Compound 65] | ++ (++ corresponds to Efficacy between 100 and 50)
12 | < 1 | CCN(Cc1ccccc1)c1nc(C(N)=O)cc(-c2ccccc2)n1 [Compound 50] | +++ (+++ corresponds to Efficacy greater than 100)
13 | 1 to 5 | CN(CCc1ccccc1)c1nc(C(N)=O)cc(-c2ccccc2)n1 [Compound 38] | +++ (+++ corresponds to Efficacy greater than 100)
14 | > 5 | COCCCNc1nc(C(N)=O)cc(-c2cccc(OC)c2)n1 [Compound 88] | + (+ corresponds to Efficacy less than 50)
15 | > 5 | COc1cccc(-c2cc(C(N)=O)nc(N3CCCCC3)n2)c1F [Compound 105] | +++ (+++ corresponds to Efficacy greater than 100)
16 | 1 to 5 | CCCCN(CCO)c1nc(C(N)=O)cc(-c2ccccc2)n1 [Compound 19] | ++ (++ corresponds to Efficacy between 100 and 50)
17 | < 1 | CCOc1cccc(-c2cc(C(N)=O)nc(N(CC)CC)n2)c1 [Compound 212] | +++ (+++ corresponds to Efficacy greater than 100)
18 | 1 to 5 | COc1ccccc1-c1cc(C(N)=O)nc(NCC2CCCO2)n1 (stereo not shown) [Compound 193] | +++ (+++ corresponds to Efficacy greater than 100)
19 | 1 to 5 | NC(=O)c1cc(-c2cccc(Cl)c2Cl)nc(N2CCCCC2)n1 [Compound 95] | ++ (++ corresponds to Efficacy between 100 and 50)
20 | 1 to 5 | NC(=O)c1cc(-c2cccc(F)c2F)nc(N2CCCCC2)n1 [Compound 6] | ++ (++ corresponds to Efficacy between 100 and 50)
21 | > 5 | COc1ccc(-c2cc(C(N)=O)nc(NCC3CC3)n2)cc1 [Compound 189] | + (+ corresponds to Efficacy less than 50)
22 | < 1 | CCN(CC)c1nc(C(N)=O)cc(-c2cc(C(C)C)ccc2OC)n1 [Compound 76] | +++ (+++ corresponds to Efficacy greater than 100)

Row | EC50 [µM] | Structure (SMILES) | Efficacy
23 | 1 to 5 | CCCN(CC1CC1)c1nc(C(N)=O)cc(-c2cccc(OC)c2)n1 [Compound 89] | +++ (+++ corresponds to Efficacy greater than 100)
24 | 1 to 5 | CCN(CC)c1nc(C(N)=O)cc(-c2ccccc2C)n1 [Compound 61] | ++ (++ corresponds to Efficacy between 100 and 50)
25 | 1 to 5 | COc1ccc(-c2cc(C(N)=O)nc(N3CCCCC3)n2)cc1OC [Compound 124] | +++ (+++ corresponds to Efficacy greater than 100)
26 | > 5 | C=CCNc1nc(C(N)=O)cc(-c2ccc(OC)cc2)n1 [Compound 220] | + (+ corresponds to Efficacy less than 50)
27 | > 5 | COc1ccc(-c2cc(C(N)=O)nc(NCc3ccco3)n2)cc1 [Compound 176] | ++ (++ corresponds to Efficacy between 100 and 50)
28 | 1 to 5 | CCOC(=O)C1CCN(c2nc(C(N)=O)cc(-c3ccccc3)n2)CC1 [Compound 99] | + (+ corresponds to Efficacy less than 50)
29 | < 1 | CCOc1ccccc1-c1cc(C(N)=O)nc(N(CC)CC)n1 [Compound 5] | +++ (+++ corresponds to Efficacy greater than 100)
30 | 1 to 5 | CCN(CC)c1nc(C(N)=O)cc(-c2ccc(OC)cc2OC)n1 [Compound 172] | +++ (+++ corresponds to Efficacy greater than 100)
31 | 1 to 5 | CC1CC(C)CN(c2nc(C(N)=O)cc(-c3ccccc3)n2)C1 (stereo not shown) [Compound 113] | ++ (++ corresponds to Efficacy between 100 and 50)
32 | 1 to 5 | NC(=O)c1cc(-c2ccccc2)nc(N2CC=CC2)n1 [Compound 79] | +++ (+++ corresponds to Efficacy greater than 100)
33 | 1 to 5 | CCOC(=O)CN(C)c1nc(C(N)=O)cc(-c2ccccc2)n1 [Compound 209] | ++ (++ corresponds to Efficacy between 100 and 50)
34 | > 5 | NC(=O)c1cc(-c2ccccc2)nc(N2CCC(O)(c3ccc(Cl)cc3)CC2)n1 [Compound 42] | + (+ corresponds to Efficacy less than 50)
35 | > 5 | CC(C)(C)Nc1nc(C(N)=O)cc(-c2ccccc2)n1 [Compound 71] | ++ (++ corresponds to Efficacy between 100 and 50)
36 | 1 to 5 | CCN(CC)c1nc(C(N)=O)cc(-c2cc(Cl)cc(Cl)c2)n1 [Compound 226] | ++ (++ corresponds to Efficacy between 100 and 50)
37 | > 5 | COc1cccc(-c2cc(C(N)=O)nc(N3CCCCC3)n2)c1 [Compound 168] | +++ (+++ corresponds to Efficacy greater than 100)
38 | < 1 | CCOc1ccc(-c2cc(C(N)=O)nc(N(CC)CC)n2)cc1 [Compound 20] | ++ (++ corresponds to Efficacy between 100 and 50)
39 | > 5 | CCN(CCO)c1nc(C(=O)NC)cc(-c2ccccc2)n1 [Compound 156] | + (+ corresponds to Efficacy less than 50)
40 | > 5 | NC(=O)c1cc(-c2ccccc2)nc(N2CCC(CCO)CC2)n1 [Compound 181] | ++ (++ corresponds to Efficacy between 100 and 50)
41 | > 5 | N#CC1(c2ccccc2)CCN(c2nc(C(N)=O)cc(-c3ccccc3)n2)CC1 [Compound 180] | ++ (++ corresponds to Efficacy between 100 and 50)
42 | < 1 | CCN(CC)c1nc(C(N)=O)cc(-c2cccc(OC(F)(F)F)c2)n1 [Compound 84] | ++ (++ corresponds to Efficacy between 100 and 50)
43 | 1 to 5 | CCCCN(CC)c1nc(C(N)=O)cc(-c2ccccc2)n1 [Compound 121] | +++ (+++ corresponds to Efficacy greater than 100)
44 | 1 to 5 | NC(=O)c1cc(-c2ccc(Cl)c(Cl)c2)nc(N2CCCCC2)n1 [Compound 140] | ++ (++ corresponds to Efficacy between 100 and 50)
